Source: patent US7183061B2, “Method of expressing Heliothis ecdysone receptor fusion protein” (Syngenta Limited, priority 1996, dated 2007)

Molecular target: T1, glucocorticoid/Drosophila ecdysone chimeric receptor (UniProt P04150+P34021)
T1 construct: expressed in transfected cells; host or cells: maize suspension-culture protoplasts
T1 sequence (P04150+P34021 with tags, fused parts or gaps): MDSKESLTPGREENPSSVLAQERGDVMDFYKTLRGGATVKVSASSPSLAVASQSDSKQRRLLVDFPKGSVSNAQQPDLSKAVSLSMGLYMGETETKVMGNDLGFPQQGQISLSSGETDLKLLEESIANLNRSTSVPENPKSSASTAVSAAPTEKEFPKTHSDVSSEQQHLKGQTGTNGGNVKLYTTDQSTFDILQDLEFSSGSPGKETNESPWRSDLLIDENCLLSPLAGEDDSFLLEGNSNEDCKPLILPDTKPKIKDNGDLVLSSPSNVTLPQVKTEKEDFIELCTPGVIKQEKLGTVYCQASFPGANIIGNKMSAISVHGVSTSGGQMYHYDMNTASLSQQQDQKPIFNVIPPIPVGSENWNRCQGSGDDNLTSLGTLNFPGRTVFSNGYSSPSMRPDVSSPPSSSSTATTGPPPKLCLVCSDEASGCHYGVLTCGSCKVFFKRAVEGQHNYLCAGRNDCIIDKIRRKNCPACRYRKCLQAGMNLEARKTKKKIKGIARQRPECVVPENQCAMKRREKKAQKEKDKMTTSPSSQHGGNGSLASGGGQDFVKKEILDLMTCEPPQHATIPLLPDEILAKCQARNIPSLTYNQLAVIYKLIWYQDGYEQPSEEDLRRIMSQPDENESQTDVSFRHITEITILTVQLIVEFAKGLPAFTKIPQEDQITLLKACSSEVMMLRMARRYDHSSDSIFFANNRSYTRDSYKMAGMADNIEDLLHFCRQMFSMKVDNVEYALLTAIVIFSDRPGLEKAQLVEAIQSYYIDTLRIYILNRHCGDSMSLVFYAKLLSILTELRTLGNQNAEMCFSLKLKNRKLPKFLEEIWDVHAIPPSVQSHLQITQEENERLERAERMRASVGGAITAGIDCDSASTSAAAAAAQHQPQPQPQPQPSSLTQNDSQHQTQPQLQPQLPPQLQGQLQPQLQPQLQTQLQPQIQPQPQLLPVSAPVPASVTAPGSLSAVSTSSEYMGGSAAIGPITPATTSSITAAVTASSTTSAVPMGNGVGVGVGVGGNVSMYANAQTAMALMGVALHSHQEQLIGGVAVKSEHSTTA
Experiment: Maize protoplast GUS reporter assay with pMF6GREcRS and p221.9GRE6
Type: cell-based
Settings: maize protoplasts, reporter plus effector
Description: Protoplasts were isolated from a maize suspension culture derived from BE70×A188 embryogenic callus material, which was maintained by subculturing twice weekly in MS0.5mod. (MS medium supplemented with 3% sucrose, 690 mg/l proline, 1 g/l myo-inositol, 0.2 g/l casein acid hydrolysate, 0.5 mg/l 2,4-D, pH 5.6). Cells from suspensions two days post subculture were digested in enzyme mixture (2.0% Cellulase RS, 0.2% Pectolyase Y23, 0.5 M Mannitol, 5 mM CaCl2.2H2O, 0.5% MES, pH 5.6, ˜660 mmol/kg) using ˜10 ml/g cells, incubating at 25° C., dim light, rotating gently for ˜2 hours. The digestion mixture was sieved sequentially through 250 μm and 38 μm sieves, and the filtrate centrifuged at 700 rpm for 3.5 minutes, discarding the supernatant. The protoplasts were resuspended in wash buffer (0.358 M KCl, 1.0 mM NH4NO3, 5.0 mM CaCl2.2H2O, 0.5 mM KH2PO4, pH 4.8, ˜670 mmol/kg) and pelleted as before. This washing step was repeated. The pellet was resuspended in wash buffer and the protoplasts were counted. Transformation was achieved using a Polyethylene glycol method based on Negrutiu et al. Protoplasts were resuspended at 2×10^6/ml in MaMg medium (0.4 M Mannitol, 15 mM MgCl2, 0.1% MES, pH 5.6, ˜450 mmol/kg) aliquotting 0.5 ml/treatment (i.e. 1×10^6 protoplasts/treatment). Samples were heat shocked at 45° C. for 5 minutes then cooled to room temperature. 10 μg each of p221.9GRE6 and pMF6HR1PAT (GR) (1 mg/ml)/treatment were added and mixed in gently, followed by immediate addition of 0.5 ml warm (˜45° C.) PEG solution (40% PEG 3,350 MW in 0.4 M Mannitol, 0.1 M Ca(NO3)2, pH 8.0), which was mixed in thoroughly but gently. Treatments were incubated at room temperature for 20–25 minutes, then 5 ml 0.292 M KCl (pH 5.6, ˜530 mmol/kg) was added step-wise, 1 ml at a time, with mixing. The treatments were incubated for a further 10–15 minutes prior to pelleting the protoplasts by centrifuging as before. […] Protein concentrations of tissue homogenates were determined by the Bio-Rad protein assay (Bradford, 1976). […]

In the case of `CC(C)CC[C@@H](O)[C@](C)(O)[C@H]1CC[C@@]2(O)C3=CC(=O)[C@]4(O)C[C@@H](O)[C@@H](O)C[C@]4(C)[C@H]3[C@H](O)C[C@]12C` [Muristerone A], the marker gene activity (100 μM) is reported as “significant elevation of marker gene activity”.

`CCc1ccc(C(=O)NN(C(=O)c2cc(C)cc(C)c2)C(C)(C)C)cc1` [RH5992, 3,5-dimethylbenzoic acid 1-1(1,1-dimethylethyl)-2(4-ethylbenzoyl)hydrazide] was tested, and the “chemical induced reporter gene activity / induced levels of expression” value (concentration not given) was “no chemical induced reporter gene activity”.
